Laboratory results published in patent publication US20230061223A1, “USE OF 5-AMINO-2,3-DIHYDRO-1,4-PHTHALAZINEDIONE IN THE INHALATORY TREATMENT OF INFLAMMATORY PULMONARY DISEASES” (MetrioPharm AG, priority 2020, published 2023).
Where two headings read alike, the source gives them in different places.

Tests used:
[1] = test system: cigarette smoke-induced 3-nitrotyrosine formation in the lung parenchyma; settings: for 3-nitrotyrosine stained surface area, mean ± SEM: n=5 mice, room air 0.24, smoke alone 3.07
Procedure: 5-amino-2,3-dihydro-1,4-phthalazinedione sodium salt Form I was tested in an isolated, ventilated and perfused mouse lung system that was stimulated with cigarette smoke.
The isolated, ventilated and perfused mouse lung system (ILU) is an established model for studying acute effects of various conditions and drugs on lung parenchyma and vasculature. It is mainly used for examining effects of hypoxia and for evaluating the efficacy of potential drugs on the hypoxic pulmonary vasoreaction (cf. Weissmann et al. (2006) Proc Natl Acad Sci USA 103: 19093-19098).
C57BL/6J mice (n=25, 5 per group; male/female, 3-6 months, 20-30 g; Charles River GmbH, Sulzfeld, Germany) were anesthetized with a ketamine (100 mg/kg body weight) and xylazine (20 mg/kg body weight) intraperitoneal injection (Ceva Tiergesundheit GmbH, Dusseldorf, Germany) containing heparin (50 I.E. heparin/g body weight; Ratiopharm GmbH, Ulm, Germany). The lungs and the heart were removed from the chest cavity and placed on the ILU system (see FIGS. 1A and 1B). Lungs were ventilated in an isolated chamber using normoxic gas (21% O2, 5% CO2, 74% N2; 150 breaths per minute at the PEEP (positive end-expiratory pressure) of 3 cm H2O) and perfused with a modified Krebs-Henseleit buffer (120.0 mM NaCl, 4.3 mM KCl, 1.1 mM KH2PO4, 2.4 mM CaCl2, 1.3 mM MgCl2, 13.14 mM glucose, 0.25 mM hydroxyethyl starch 200000/0.5, 25.0 mM NaHCO3 adjusted to a constant pH range of […] L-arginine; Serag-Wissner GmbH & Co. KG, Naila, Germany) at a temperature of 37° C. Lung weight, right and left ventricle pressure, as well as ventilatory pressure were monitored and recorded during the whole experimental procedure. After 5-10 minutes, when the lung was properly flushed and all the parameters were stable, 5-amino-2,3-dihydro-1,4-phthalazinedione sodium salt was applied by adding 150 μl of a stock solution to 15 ml of the circulating perfusion buffer. The substance was applied 10 minutes prior to the first cigarette smoke application. Cigarette smoke was applied via trachea while lung is perfused with the buffer containing 5-amino-2,3-dihydro-1,4-phthalazinedione sodium salt. Cigarette smoke was prepared freshly before each application, by burning one cigarette (research cigarettes 3R4F, University of Kentucky, USA) in one minute using normoxic gas at the flow of 11/min and collected in a 11 glass bottle containing 5 g silica gel for removing the moist from the cigarette smoke. 50 ml of the cigarette smoke were taken via a syringe and applied to the lung via trachea (FIG. 1A) in deep breaths (periodic inflation for 3-4 s) over a period of 5 min. The application was done manually while carefully monitoring the inspiratory pressure to avoid damage of the lung. The cigarette smoke application was repeated three times with a 1 hour break in-between.
Five treatment groups (n=5, respectively) were investigated:
C: cigarette smoke+0.5 mM 5-amino-2,3-dihydro-1,4-phthalazinedione sodium salt
D: cigarette smoke+1 mM 5-amino-2,3-dihydro-1,4-phthalazinedione sodium salt
E: cigarette smoke+2 mM 5-amino-2,3-dihydro-1,4-phthalazinedione sodium salt
5-amino-2,3-dihydro-1,4-phthalazinedione sodium salt Form I was dissolved in water for injection (vehicle) at the required concentrations described above. Stock solutions were prepared in water for injection. Further 1:100 dilutions were made with modified Krebs-Henseleit buffer (see above). Stock solutions were stored at −70° C. in appropriate aliquots. The required amount of stock solution was thawed, and the corresponding working solution was prepared for immediate use.
One hour after the third cigarette smoke application lungs were removed from the system and fixed by inflating with formalin solution (via trachea) at the pressure of 12-15 cm H2O for two hours at room temperature. Afterwards the fixed lungs were kept in PBS (phosphate buffer saline, see below) at +4° C. until further dehydration and paraffin embedding.

[2] = aerosol characterisation (MMAD, FPF, FPM) by cascade impactor (Next Generation Impactor) after vibrating mesh nebulization; format: physicochemical; settings: for FPF (fine particle fraction, <5 μm) / FPM (fine particle mass, 1 μm to 5 μm) / MMAD: vibrating mesh nebulizer; for FPF (fine particle fraction, <5 μm) / FPM (fine particle mass, 1 μm to 5 μm) / MMAD / released dosage: NGI at 4° C.; for released dosage at the mouthpiece as percentage of the nominal value: 3 min nebulization; for released dosage: at the mouthpiece, M-neb dose+ mesh nebulizer; for time of aerosol release: corresponds to 30 strokes/breaths; for residual amounts in the mouthpiece: mouthpiece SK-211
Procedure: It is expressly stated that the values and ranges disclosed herein refer to measurements of the MMAD, FPF and FPM by means of a cascade impactor (Next Generation Impactor, NGI) cooled down to 4° C.
The particle size distribution (FPM) and the mass median aerodynamic diameter (MMAD) of an aerosol generated from an aqueous solution containing 5-amino-2,3-dihydro-1,4-phthalazinedione sodium salt was analyzed.
Crystalline polymorph Form I of 5-amino-2,3-dihydro-1,4-phthalazinedione sodium salt was solved in physiological saline solution (double distilled water containing 0.9% NaCl). The final concentration solution was 20 mg/ml 5-amino-2,3-dihydro-1,4-phthalazinedione sodium salt.
The experimental procedure was carried out pursuant to Ph. Eur. 2.9.44 (Preparations for Nebulisation: Characterisation). A cascade impactor (Next Generation Impactor (NGI), Copley Scientific Ltd., Nottingham, UK) was used to determine the respective percentage for each fraction of the nebulized particles. The cascade impactor was cooled to 4° C. for the measurements
The nebulization of this aqueous solution of 5-amino-2,3-dihydro-1,4-phthalazinedione sodium salt was carried out by means of a vibrating mesh nebulizer (M-neb-dose+, NEBU-TEC, Eisenfeld, Germany). The thus generated aerosol was delivered to the cascade impactor by means of a mouthpiece (SK-211, NEBU-TEC, Eisenfeld, Germany).
The nebulization chamber (yellow stamp, 250 μl liquid discharge) was filled. The puff profile configured at the breath simulator was chosen in such a way that a correct simulation of inhalation by means of the nebulizer was ensured. The corresponding time was recorded.
The quantification of nebulized 5-amino-2,3-dihydro-1,4-phthalazinedione sodium salt per cascade was carried out after extraction from the cascade pans (stage 1-8) by means of HPLC with reference to an external standard calibration curve (range 0-200 μg/ml; correlation coefficient: 0.9999).
Single values obtained for each cascade were added. […] MMAD, FPF and FPM were calculated from the obtained values: […]
For comparison, the particle size distribution (FPF and FPM) and the mass median aerodynamic diameter (MMAD) of an aerosol generated from a physiological saline solution containing salbutamol sulfate was analyzed (not part of the invention). The procedure was the same as described in Example 2.
Salbutamol is one of the most widely used substances for acute asthma attacks. It is often administered via metered-dose inhalers. Therefore, a physiological saline solution of salbutamol sulfate was tested in order to determine the particle size distribution. The standard dosage (Albutol Sulfate) of 180 μg (90 μg/spray application, 2 spray applications per inhalation session) was dissolved in physiological saline.
The procedure was the same as described in Example 2.
The standard dosage (Atrovent) of 18 μg/spray application was dissolved in physiological saline.

[3] = 20 mg/ml in physiological saline
[4] = aerosol from physiological saline solution
[5] = standard dosage in physiological saline

Compound | released dosage at the mouthpiece as percentage of the nominal value [2] [%] | FPF (fine particle fraction, <5 μm) [2, 4] [%] | MMAD [2, 4] [μm] | time of aerosol release [2] [min] | residual amounts in the mouthpiece [2] | FPM (fine particle mass, 1 μm to 5 μm) [2, 4] [%] | released dosage [2, 5] [µg] | FPM (fine particle mass, 1 μm to 5 μm) [2, 5] [µg] | other results
Nc1cccc2c(=O)[nH][nH]c(=O)c12.[Na] [5-amino-2,3-dihydro-1,4-phthalazinedione sodium salt] | 95 | 74.3 | 3.1 | 3 | No residual amounts | – | – | – | effect on cigarette smoke induced 3-nitrotyrosine formation (in words) ([1]; 0.5 mM in perfusion buffer): moderate effect; effect on cigarette smoke induced 3-nitrotyrosine formation (in words) ([1]; 1 mM in perfusion buffer): almost completely abolished; effect on cigarette smoke induced 3-nitrotyrosine formation (in words) ([1]; 2 mM in perfusion buffer): almost completely abolished; cigarette smoke-induced 3-nitrotyrosine formation in the lung parenchyma, pre-treatment (in words) ([1]; ILU model, pre-treatment): prevents; 3-nitrotyrosine stained surface area, mean ± SEM ([1]; cigarette smoke + 0.5 mM in perfusion buffer): 2.24 ± 0.28 % area; 3-nitrotyrosine stained surface area, mean ± SEM ([1]; cigarette smoke + 1 mM in perfusion buffer): 0.72 ± 0.26 % area; 3-nitrotyrosine stained surface area, mean ± SEM ([1]; cigarette smoke + 2 mM in perfusion buffer): 0.37 ± 0.13 % area; ROS/RNS levels in cigarette smoke-stimulated mouse lung (in words) ([1]; ex vivo mouse lung, 0.5-2 mM): dose-dependent reduction of ROS/RNS levels down to control levels; FPF (fine particle fraction, <5 μm) [2, 3]: 3.5 mg; FPM (fine particle mass, 1 μm to 5 μm) [2, 3]: 3300 µg; FPM (fine particle mass, 1 μm to 5 μm) ([2]; aerosol from physiological saline solution, sodium salt): 69.0%; released dosage [2, 3]: 4700 µg; FPF in comparison ([2]; versus ipratropium bromide): slightly higher; FPM in comparison ([2]; versus ipratropium bromide): slightly smaller; MMAD in comparison ([2]; versus ipratropium bromide): clearly smaller; FPF in comparison ([2]; versus salbutamol sulfate): slightly higher; FPM in comparison ([2]; versus salbutamol sulfate): in a similar range; MMAD in comparison ([2]; versus salbutamol sulfate): clearly smaller
salbutamol sulfate [reference compound] | 92 | 73.3 | 3.57 | 3 | No residual amounts | 69.1 | 166 | 115 | FPF (fine particle fraction, <5 μm) [2, 5]: 0.122 mg
CC(C)[N+]1(C)[C@@H]2CC[C@H]1CC(OC(=O)C(CO)c1ccccc1)C2.[Br-] (stereo partly drawn) [ipratropium bromide, reference compound] | 86 | – | 3.59 | 3 | No residual amounts | 69.4 | 15 | 10 | –
